# Experiments:
# IGROV-1 = assay: Growth inhibition of human IGROV1 cells at 10 uM after 48 hrs by sulforhodamine B assay relative to control; format: functional; settings: IGROV-1, 48 h, read-out: GI
# K562 = assay: Growth inhibition of human K562 cells at 10 uM after 48 hrs by sulforhodamine B assay relative to control; format: functional; settings: K562, 48 h, read-out: GI
# SK-MEL-2 = assay: Growth inhibition of human SK-MEL-2 cells at 10 uM after 48 hrs by sulforhodamine B assay relative to control; format: functional; settings: SK-MEL-2, 48 h, read-out: GI
# UO-31 = assay: Growth inhibition of human UO31 cells at 10 uM after 48 hrs by sulforhodamine B assay relative to control; format: functional; settings: UO-31, 48 h, read-out: GI
# PC-3 = assay: Growth inhibition of human PC3 cells at 10 uM after 48 hrs by sulforhodamine B assay relative to control; format: functional; settings: PC-3, 48 h, read-out: GI
# SNB-75 = assay: Growth inhibition of human SNB75 cells at 10 uM after 48 hrs by sulforhodamine B assay relative to control; format: functional; settings: SNB-75, 48 h, read-out: GI
# UACC-257 = assay: Growth inhibition of human UACC257 cells at 10 uM after 48 hrs by sulforhodamine B assay relative to control; format: functional; settings: UACC-257, 48 h, read-out: GI
# U-251 = assay: Growth inhibition of human U251 cells at 10 uM after 48 hrs by sulforhodamine B assay relative to control; format: functional; settings: U-251, 48 h, read-out: GI
# NCI/ADR-RES = assay: Growth inhibition of human NCI-ADR-RES cells at 10 uM after 48 hrs by sulforhodamine B assay relative to control; format: functional; settings: read-out: GI
# TK-10 = assay: Growth inhibition of human TK10 cells at 10 uM after 48 hrs by sulforhodamine B assay relative to control; format: functional; settings: TK-10, 48 h, read-out: GI
# T47D = assay: Growth inhibition of human T47D cells at 10 uM after 48 hrs by sulforhodamine B assay relative to control; format: functional; settings: read-out: GI
# SK-OV-3 = assay: Growth inhibition of human SKOV3 cells at 10 uM after 48 hrs by sulforhodamine B assay relative to control; format: functional; settings: SK-OV-3, 48 h, read-out: GI
# SR = assay: Growth inhibition of human SR cells at 10 uM after 48 hrs by sulforhodamine B assay relative to control; format: functional; settings: read-out: GI
# MOLT-4 = assay: Growth inhibition of human MOLT4 cells at 10 uM after 48 hrs by sulforhodamine B assay relative to control; format: functional; settings: MOLT-4, 48 h, read-out: GI
# SF-539 = assay: Growth inhibition of human SF539 cells at 10 uM after 48 hrs by sulforhodamine B assay relative to control; format: functional; settings: SF-539, 48 h, read-out: GI
# MCF7 = assay: Growth inhibition of human MCF7 cells at 10 uM after 48 hrs by sulforhodamine B assay relative to control; format: functional; settings: MCF7, 48 h, read-out: GI
# SW-620 = assay: Growth inhibition of human SW620 cells at 10 uM after 48 hrs by sulforhodamine B assay relative to control; format: functional; settings: SW-620, 48 h, read-out: GI
# NCI-H23 = assay: Growth inhibition of human NCI-H23 cells at 10 uM after 48 hrs by sulforhodamine B assay relative to control; format: functional; settings: NCI-H23, 48 h, read-out: GI
# UACC-62 = assay: Growth inhibition of human UACC62 cells at 10 uM after 48 hrs by sulforhodamine B assay relative to control; format: functional; settings: UACC-62, 48 h, read-out: GI
# MDA-MB-231 = assay: Growth inhibition of human MDA-MB-231 cells at 10 uM after 48 hrs by sulforhodamine B assay relative to control; format: functional; settings: MDA-MB-231, 48 h, read-out: GI
# OVCAR-3 = assay: Growth inhibition of human OVCAR3 cells at 10 uM after 48 hrs by sulforhodamine B assay relative to control; format: functional; settings: OVCAR-3, 48 h, read-out: GI
# HOP-92 = assay: Growth inhibition of human HOP92 cells at 10 uM after 48 hrs by sulforhodamine B assay relative to control; format: functional; settings: HOP-92, 48 h, read-out: GI
# SN12C = assay: Growth inhibition of human SN12C cells at 10 uM after 48 hrs by sulforhodamine B assay relative to control; format: functional; settings: read-out: GI
# [1] = biological target: Cyclin-dependent kinase 2 (Homo sapiens, UniProt P24941); assay: Inhibition of CDK2 (unknown origin)
SMILES,inhibition of growth at 10 µM (IGROV-1),inhibition of growth at 10 µM (K562),inhibition of growth at 10 µM (SK-MEL-2),inhibition of growth at 10 µM (UO-31),inhibition of growth at 10 µM (PC-3),inhibition of growth at 10 µM (SNB-75),inhibition of growth at 10 µM (UACC-257),inhibition of growth at 10 µM (U-251),inhibition of growth at 10 µM (NCI/ADR-RES),inhibition of growth at 10 µM (TK-10),inhibition of growth at 10 µM (T47D),inhibition of growth at 10 µM (SK-OV-3),inhibition of growth at 10 µM (SR),inhibition of growth at 10 µM (MOLT-4),inhibition of growth at 10 µM (SF-539),inhibition of growth at 10 µM (MCF7),inhibition of growth at 10 µM (SW-620),inhibition of growth at 10 µM (NCI-H23),inhibition of growth at 10 µM (UACC-62),inhibition of growth at 10 µM (MDA-MB-231),other results
COc1ccc(/C=C2\Oc3c(c(OC)c4ccoc4c3CN3CCOCC3)C2=O)cc1,56.4 to 65.2%,56.4 to 65.2%,56.4 to 65.2%,56.4 to 65.2%,56.4 to 65.2%,56.4 to 65.2%,56.4 to 65.2%,56.4 to 65.2%,56.4 to 65.2%,56.4 to 65.2%,56.4 to 65.2%,56.4 to 65.2%,56.4 to 65.2%,56.4 to 65.2%,56.4 to 65.2%,56.4 to 65.2%,56.4 to 65.2%,56.4 to 65.2%,56.4 to 65.2%,56.4 to 65.2%,inhibition of growth at 10 µM (OVCAR-3): 56.4 to 65.2%; inhibition of growth at 10 µM (HOP-92): 56.4 to 65.2%; inhibition of growth at 10 µM (SN12C): 56.4 to 65.2%
COc1ccc2c(c1)O/C(=C\c1ccc(OCC(=O)Nc3ccccc3)c(OC)c1)C2=O,18.9 to 27.1%,18.9 to 27.1%,18.9 to 27.1%,18.9 to 27.1%,18.9 to 27.1%,18.9 to 27.1%,18.9 to 27.1%,18.9 to 27.1%,18.9 to 27.1%,18.9 to 27.1%,18.9 to 27.1%,18.9 to 27.1%,18.9 to 27.1%,18.9 to 27.1%,18.9 to 27.1%,18.9 to 27.1%,18.9 to 27.1%,18.9 to 27.1%,18.9 to 27.1%,18.9 to 27.1%,inhibition of growth at 10 µM (OVCAR-3): 18.9 to 27.1%; inhibition of growth at 10 µM (HOP-92): 18.9 to 27.1%; inhibition of growth at 10 µM (SN12C): 18.9 to 27.1%
COc1cc(/C=C2\Oc3cc4occc4c(OC)c3C2=O)ccc1OCC(=O)Nc1ccccc1,67.1 to 79.6%,67.1 to 79.6%,67.1 to 79.6%,67.1 to 79.6%,67.1 to 79.6%,67.1 to 79.6%,67.1 to 79.6%,67.1 to 79.6%,67.1 to 79.6%,67.1 to 79.6%,67.1 to 79.6%,67.1 to 79.6%,67.1 to 79.6%,67.1 to 79.6%,67.1 to 79.6%,67.1 to 79.6%,67.1 to 79.6%,67.1 to 79.6%,67.1 to 79.6%,67.1 to 79.6%,IC50 [1]: 1110 nM; inhibition of growth at 10 µM (OVCAR-3): 67.1 to 79.6%; inhibition of growth at 10 µM (HOP-92): 67.1 to 79.6%; inhibition of growth at 10 µM (SN12C): 67.1 to 79.6%
